Measurements from paper PMC12775434, “Ultra-large virtual screening unveils potent agonists of the neuromodulatory orphan receptor GPR139” (Nature Communications, 2025).
Where two headings read alike, the source gives them in different places.

Assay: Bioanalysis of compounds in mouse plasma and brain
Type: in vivo
Conditions: one hour after 30 mg/kg i.p.; for concentration at 1 h: intraperitoneal
Description: Adult […] C57BL/6 J mice (3-6 months old) were provided by Charles River. Both females and males (15 females and 9 males) were used in this study. Sex was evenly distributed across experimental groups. Sex was not considered in the study design or analysis, as no reports indicate differential expression levels of GPR139 between male and female mice. They were housed with ad libitum food and water, in a temperature and humidity-controlled environment under a standard 12 h light/dark cycle. The experiments were performed in agreement with the European Council Directive (86/609/EEC) and approved by the local Animal Ethics Committee at Karolinska Institute (3218-2022). All efforts were made to minimize suffering and the number of animals used. Mice were treated with either 10% DMSO + 10% solutol HS-15 + 80% saline (vehicle, n = 8), compound 1.5 (n = 8, 30 mg/kg i.p.), or JNJ-63533054 (n = 8, 30 mg/kg i.p.), both of which were dissolved in 10% DMSO + 10% solutol HS-15 + 80% saline. Mice were placed in an open field arena 10 min after the injection and recorded for 50 min. Total distance travelled and the time spent in the periphery arena were measured using an automated video tracking system (EthoVision XT 11.5; Noldus). One-way ANOVA followed by Dunnett’s multiple comparisons test and Two-way ANOVA followed by Tukey’s multiple comparisons test were used. Brain and blood samples were taken immediately after the locomotion test. The brain samples were quickly frozen, and blood was drawn from the cervical vein upon decapitation into EP tubes. The samples were immediately centrifuged for 10 min at 3000 × g at 4 °C, and the plasma was transferred into clean polypropylene tubes. All samples were stored at −80 °C before analysis.
1.5(S) and JNJ-63533054, and the internal standard warfarin, were quantified in plasma and brain tissue samples, using ultraperformance liquid chromatography-tandem mass spectrometry (UPLC-MS/MS). Samples, respective blanks, standards, and quality controls (QCs) were included in each bioanalytical run. For both compounds, the calibration curves in plasma included standards at 0.5–10 µM, and QCs at 1.9–7.6 µM, and those in brain tissue homogenate included standards at 1–25 µM, and QCs at 1–20 µM.
Plasma samples were first diluted 1:2 (v:v) in blank plasma on a 96-well plate (Corning). Thereafter, the samples, along with blank plasma, standards, and QCs, were precipitated by adding 180 µL ice-cold acetonitrile containing 100 nM warfarin to 20 µL sample. Samples were vortexed and centrifuged at 2465 × g, at 4 °C, for 20 min (Centrifuge 5810 R, Eppendorf, Germany). The supernatants were transferred to a new 96-well plate and 2 µL were injected onto the UPLC-column. One hemisphere of the brains was homogenized 1:4 (w:v) with 0.1 % formic acid in 1:1 acetonitrile and methanol (v:v) in tubes containing ceramic beads (Precellys® Hard Tissue Homogenizing CK28 (inert 2.8 ceramic, zirconium oxide, beads), 2 mL, polypropylene co-polymer, Bertin Technologies). The mechanical homogenization was performed using a Minilys homogenizer (Bertin Technologies, France) for 30 s at the highest speed (5000 rpm). The tubes were centrifuged at 5204 × g for 7 min, and the supernatant was transferred to an Eppendorf tube. Subsequently, brain homogenate supernatants, along with supernatants from blank brain homogenate, standards, and QCs, were treated as described for diluted plasma samples. […]

## CC(NC(=O)CNC(=O)c1cccc(Cl)c1)c1ccccc1 (centres unmarked) [JNJ-63533054, reference compound]
Both sexes, C57BL/6 J, brain, read-out: total brain tissue concentration (Cbrain)
  concentration at 1 h: 24.8 µM
Both sexes, C57BL/6 J, brain/plasma, ip, single time point, read-out: total brain-to-plasma concentration ratio (Kp,brain)
  Kp at 1 h: 1.21 ± 0.12
Both sexes, C57BL/6 J, plasma, read-out: total plasma concentration (Cplasma)
  concentration at 1 h: 20.5 µM
  total brain tissue concentration (Cbrain): 24.8 ± 6.2 µM
  total plasma concentration (Cplasma): 20.5 ± 5.3 µM
